# Measured values from ChEMBL document CHEMBL2146442, “High-affinity and selective dopamine D₃ receptor full agonists” (Bioorg Med Chem Lett, 2012).
# Tested on: not listed separately
# Test: Selectivity ratio of dopamine D2 receptor to dopamine D3 receptor
row,SMILES,Selectivity ratio
1,O=C(NC/C=C/CN1CCN(c2cccc(Cl)c2Cl)CC1)c1ccc(-c2ccccn2)cc1,100
2,O=C(NCCCCN1CCN(c2cccc(Cl)c2Cl)CC1)c1ccc2c(c1)Cc1ccccc1-2,100
3,CCCN(CCN1CCN(c2ccc(-c3ccccc3)cc2)CC1)[C@H]1CCc2nc(N)sc2C1,100
4,COc1ccccc1N1CCN(CC(O)CCNC(=O)c2cc3ccccc3[nH]2)CC1 (stereo unspecified),100

# Tested on: not listed separately
# Test: Selectivity ratio of dopamine D1 like receptor to dopamine D3 receptor
row,SMILES,Selectivity ratio
1,O=C(NC/C=C/CN1CCN(c2cccc(Cl)c2Cl)CC1)c1ccc(-c2ccccn2)cc1,> 1000
2,O=C(NCCCCN1CCN(c2cccc(Cl)c2Cl)CC1)c1ccc2c(c1)Cc1ccccc1-2,> 1000
3,CCCN(CCN1CCN(c2ccc(-c3ccccc3)cc2)CC1)[C@H]1CCc2nc(N)sc2C1,> 1000
4,COc1ccccc1N1CCN(CC(O)CCNC(=O)c2cc3ccccc3[nH]2)CC1 (stereo unspecified),> 1000

# Molecular target: D(3) dopamine receptor (Rattus norvegicus, UniProt P19020)
# Test: Displacement of [3H]-R(+)-7-OHDPAT from dopamine D3 receptor in rat brain homogenates
# Assay type: tissue-based
# D(3) dopamine receptor, sequence (P19020 whole entry): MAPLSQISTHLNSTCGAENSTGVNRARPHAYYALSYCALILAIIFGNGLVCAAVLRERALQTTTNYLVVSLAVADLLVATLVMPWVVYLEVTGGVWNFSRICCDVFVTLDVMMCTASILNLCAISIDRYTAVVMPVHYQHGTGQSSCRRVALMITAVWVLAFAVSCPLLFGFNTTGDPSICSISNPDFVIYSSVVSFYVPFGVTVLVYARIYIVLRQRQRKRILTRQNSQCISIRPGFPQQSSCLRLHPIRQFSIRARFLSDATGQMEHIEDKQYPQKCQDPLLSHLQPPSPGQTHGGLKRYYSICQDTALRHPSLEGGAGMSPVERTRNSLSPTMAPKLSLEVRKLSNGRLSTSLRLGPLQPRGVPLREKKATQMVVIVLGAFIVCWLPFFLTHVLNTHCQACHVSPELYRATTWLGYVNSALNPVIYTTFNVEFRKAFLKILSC
row,SMILES,Ki [nM]
1,CCCN(CC[C@H]1CC[C@H](NC(=O)c2cccc3ncccc23)CC1)[C@H]1CCc2nc(N)sc2C1,1.6
2,CCCN(CC[C@H]1CC[C@H](NS(=O)(=O)c2cccc(C)c2)CC1)[C@H]1CCc2nc(N)sc2C1,0.89
3,CCCN(CC[C@H]1CC[C@H](NS(=O)(=O)c2cccc3ccccc23)CC1)[C@H]1CCc2nc(N)sc2C1,1.5
4,CCCN(CC[C@H]1CC[C@H](NC(=O)c2cccc(-c3noc(CC)n3)c2)CC1)[C@H]1CCc2nc(N)sc2C1,1.5
5,CCCN(CC[C@H]1CC[C@H](NS(=O)(=O)c2ccccc2)CC1)[C@H]1CCc2nc(N)sc2C1,0.79
6,CCCN(CC[C@H]1CC[C@H](NC(=O)c2cccc(-n3ccnc3)c2)CC1)[C@H]1CCc2nc(N)sc2C1,1.1
7,CCCN(CC[C@H]1CC[C@H](NC(=O)/C=C/c2cccc(Cl)c2)CC1)[C@H]1CCc2nc(N)sc2C1,1.2
8,CCCN(CC[C@H]1CC[C@H](NC(=O)/C=C/c2cccc(F)c2)CC1)[C@H]1CCc2nc(N)sc2C1,9.9
9,CCCN(CC[C@H]1CC[C@H](NC(=O)c2ccc(-n3ccnc3)cc2)CC1)[C@H]1CCc2nc(N)sc2C1,1.9
10,CCCN(CC[C@H]1CC[C@H](NS(=O)(=O)c2ccc3ccccc3c2)CC1)[C@H]1CCc2nc(N)sc2C1,1.5
11,CCCN(CC[C@H]1CC[C@H](NC(=O)c2ccc(-c3noc(CC)n3)cc2)CC1)[C@H]1CCc2nc(N)sc2C1,2.1
12,CCCN(CC[C@H]1CC[C@H](NS(=O)(=O)c2ccc(Cl)cc2)CC1)[C@H]1CCc2nc(N)sc2C1,0.95
13,CCCN(CC[C@H]1CC[C@H](NC(=O)c2cccc(-n3cncn3)c2)CC1)[C@H]1CCc2nc(N)sc2C1,3
14,CCCN(CC[C@H]1CC[C@H](NS(=O)(=O)c2ccc(-c3ccccc3)cc2)CC1)[C@H]1CCc2nc(N)sc2C1,41
15,CCCN(CC[C@H]1CC[C@H](NC(=O)c2ccc(-c3noc(C)n3)cc2)CC1)[C@H]1CCc2nc(N)sc2C1,1.3
16,CCCN(CC[C@H]1CC[C@H](NC(=O)/C=C/c2ccccc2F)CC1)[C@H]1CCc2nc(N)sc2C1,2.9
17,CCCN(CC[C@H]1CC[C@H](NC(=O)c2ccc(-n3cccn3)cc2)CC1)[C@H]1CCc2nc(N)sc2C1,3

# Molecular target: not listed separately
# Test: Displacement of [3H]Spiperone from dopamine D2 like receptor in rat brain homogenates
# Assay type: tissue-based
row,SMILES,Ki [nM]
1,CCCN(CC[C@H]1CC[C@H](NC(=O)c2cccc3ncccc23)CC1)[C@H]1CCc2nc(N)sc2C1,72
2,CCCN(CC[C@H]1CC[C@H](NS(=O)(=O)c2cccc(C)c2)CC1)[C@H]1CCc2nc(N)sc2C1,62
3,CCCN(CC[C@H]1CC[C@H](NS(=O)(=O)c2cccc3ccccc23)CC1)[C@H]1CCc2nc(N)sc2C1,31
4,CCCN(CC[C@H]1CC[C@H](NC(=O)c2cccc(-c3noc(CC)n3)c2)CC1)[C@H]1CCc2nc(N)sc2C1,491
5,CCCN(CC[C@H]1CC[C@H](NS(=O)(=O)c2ccccc2)CC1)[C@H]1CCc2nc(N)sc2C1,57
6,CCCN(CC[C@H]1CC[C@H](NC(=O)c2cccc(-n3ccnc3)c2)CC1)[C@H]1CCc2nc(N)sc2C1,32
7,CCCN(CC[C@H]1CC[C@H](NC(=O)/C=C/c2cccc(Cl)c2)CC1)[C@H]1CCc2nc(N)sc2C1,52
8,CCCN(CC[C@H]1CC[C@H](NC(=O)/C=C/c2cccc(F)c2)CC1)[C@H]1CCc2nc(N)sc2C1,80
9,CCCN(CC[C@H]1CC[C@H](NC(=O)c2ccc(-n3ccnc3)cc2)CC1)[C@H]1CCc2nc(N)sc2C1,23
10,CCCN(CC[C@H]1CC[C@H](NS(=O)(=O)c2ccc3ccccc3c2)CC1)[C@H]1CCc2nc(N)sc2C1,14
11,CCCN(CC[C@H]1CC[C@H](NC(=O)c2ccc(-c3noc(CC)n3)cc2)CC1)[C@H]1CCc2nc(N)sc2C1,328
12,CCCN(CC[C@H]1CC[C@H](NS(=O)(=O)c2ccc(Cl)cc2)CC1)[C@H]1CCc2nc(N)sc2C1,71
13,CCCN(CC[C@H]1CC[C@H](NC(=O)c2cccc(-n3cncn3)c2)CC1)[C@H]1CCc2nc(N)sc2C1,43
14,CCCN(CC[C@H]1CC[C@H](NS(=O)(=O)c2ccc(-c3ccccc3)cc2)CC1)[C@H]1CCc2nc(N)sc2C1,75
15,CCCN(CC[C@H]1CC[C@H](NC(=O)c2ccc(-c3noc(C)n3)cc2)CC1)[C@H]1CCc2nc(N)sc2C1,442
16,CCCN(CC[C@H]1CC[C@H](NC(=O)/C=C/c2ccccc2F)CC1)[C@H]1CCc2nc(N)sc2C1,92
17,CCCN(CC[C@H]1CC[C@H](NC(=O)c2ccc(-n3cccn3)cc2)CC1)[C@H]1CCc2nc(N)sc2C1,52

# Molecular target: not listed separately
# Test: Displacement of [3H]SCH23390 from dopamine D1 like receptor in rat brain homogenates
# Assay type: tissue-based
row,SMILES,Ki [nM]
1,CCCN(CC[C@H]1CC[C@H](NC(=O)c2cccc3ncccc23)CC1)[C@H]1CCc2nc(N)sc2C1,44000
2,CCCN(CC[C@H]1CC[C@H](NS(=O)(=O)c2cccc(C)c2)CC1)[C@H]1CCc2nc(N)sc2C1,8400
3,CCCN(CC[C@H]1CC[C@H](NS(=O)(=O)c2cccc3ccccc23)CC1)[C@H]1CCc2nc(N)sc2C1,4670
4,CCCN(CC[C@H]1CC[C@H](NC(=O)c2cccc(-c3noc(CC)n3)c2)CC1)[C@H]1CCc2nc(N)sc2C1,5000
5,CCCN(CC[C@H]1CC[C@H](NS(=O)(=O)c2ccccc2)CC1)[C@H]1CCc2nc(N)sc2C1,23400
6,CCCN(CC[C@H]1CC[C@H](NC(=O)c2cccc(-n3ccnc3)c2)CC1)[C@H]1CCc2nc(N)sc2C1,24700
7,CCCN(CC[C@H]1CC[C@H](NC(=O)/C=C/c2cccc(Cl)c2)CC1)[C@H]1CCc2nc(N)sc2C1,5770
8,CCCN(CC[C@H]1CC[C@H](NC(=O)/C=C/c2cccc(F)c2)CC1)[C@H]1CCc2nc(N)sc2C1,6610
9,CCCN(CC[C@H]1CC[C@H](NC(=O)c2ccc(-n3ccnc3)cc2)CC1)[C@H]1CCc2nc(N)sc2C1,37200
10,CCCN(CC[C@H]1CC[C@H](NS(=O)(=O)c2ccc3ccccc3c2)CC1)[C@H]1CCc2nc(N)sc2C1,3690
11,CCCN(CC[C@H]1CC[C@H](NC(=O)c2ccc(-c3noc(CC)n3)cc2)CC1)[C@H]1CCc2nc(N)sc2C1,17700
12,CCCN(CC[C@H]1CC[C@H](NS(=O)(=O)c2ccc(Cl)cc2)CC1)[C@H]1CCc2nc(N)sc2C1,8290
13,CCCN(CC[C@H]1CC[C@H](NC(=O)c2cccc(-n3cncn3)c2)CC1)[C@H]1CCc2nc(N)sc2C1,59700
14,CCCN(CC[C@H]1CC[C@H](NS(=O)(=O)c2ccc(-c3ccccc3)cc2)CC1)[C@H]1CCc2nc(N)sc2C1,1800
15,CCCN(CC[C@H]1CC[C@H](NC(=O)c2ccc(-c3noc(C)n3)cc2)CC1)[C@H]1CCc2nc(N)sc2C1,34600
16,CCCN(CC[C@H]1CC[C@H](NC(=O)/C=C/c2ccccc2F)CC1)[C@H]1CCc2nc(N)sc2C1,10000
17,CCCN(CC[C@H]1CC[C@H](NC(=O)c2ccc(-n3cccn3)cc2)CC1)[C@H]1CCc2nc(N)sc2C1,14400

# Species on record: Rattus norvegicus
# Test: Selectivity ratio of Ki for dopamine D1 like receptor in rat brain homogenates to Ki for dopamine D3 receptor in rat brain homogenates
# Assay type: tissue-based
row,SMILES,Ratio Ki
1,CCCN(CC[C@H]1CC[C@H](NC(=O)c2cccc3ncccc23)CC1)[C@H]1CCc2nc(N)sc2C1,27100
2,CCCN(CC[C@H]1CC[C@H](NS(=O)(=O)c2cccc(C)c2)CC1)[C@H]1CCc2nc(N)sc2C1,9470
3,CCCN(CC[C@H]1CC[C@H](NS(=O)(=O)c2cccc3ccccc23)CC1)[C@H]1CCc2nc(N)sc2C1,3160
4,CCCN(CC[C@H]1CC[C@H](NC(=O)c2cccc(-c3noc(CC)n3)c2)CC1)[C@H]1CCc2nc(N)sc2C1,3450
5,CCCN(CC[C@H]1CC[C@H](NS(=O)(=O)c2ccccc2)CC1)[C@H]1CCc2nc(N)sc2C1,29700
6,CCCN(CC[C@H]1CC[C@H](NC(=O)c2cccc(-n3ccnc3)c2)CC1)[C@H]1CCc2nc(N)sc2C1,21800
7,CCCN(CC[C@H]1CC[C@H](NC(=O)/C=C/c2cccc(Cl)c2)CC1)[C@H]1CCc2nc(N)sc2C1,4640
8,CCCN(CC[C@H]1CC[C@H](NC(=O)/C=C/c2cccc(F)c2)CC1)[C@H]1CCc2nc(N)sc2C1,666
9,CCCN(CC[C@H]1CC[C@H](NC(=O)c2ccc(-n3ccnc3)cc2)CC1)[C@H]1CCc2nc(N)sc2C1,19900
10,CCCN(CC[C@H]1CC[C@H](NS(=O)(=O)c2ccc3ccccc3c2)CC1)[C@H]1CCc2nc(N)sc2C1,2430
11,CCCN(CC[C@H]1CC[C@H](NC(=O)c2ccc(-c3noc(CC)n3)cc2)CC1)[C@H]1CCc2nc(N)sc2C1,8380
12,CCCN(CC[C@H]1CC[C@H](NS(=O)(=O)c2ccc(Cl)cc2)CC1)[C@H]1CCc2nc(N)sc2C1,8750
13,CCCN(CC[C@H]1CC[C@H](NC(=O)c2cccc(-n3cncn3)c2)CC1)[C@H]1CCc2nc(N)sc2C1,19900
14,CCCN(CC[C@H]1CC[C@H](NS(=O)(=O)c2ccc(-c3ccccc3)cc2)CC1)[C@H]1CCc2nc(N)sc2C1,44
15,CCCN(CC[C@H]1CC[C@H](NC(=O)c2ccc(-c3noc(C)n3)cc2)CC1)[C@H]1CCc2nc(N)sc2C1,27000
16,CCCN(CC[C@H]1CC[C@H](NC(=O)/C=C/c2ccccc2F)CC1)[C@H]1CCc2nc(N)sc2C1,3510
17,CCCN(CC[C@H]1CC[C@H](NC(=O)c2ccc(-n3cccn3)cc2)CC1)[C@H]1CCc2nc(N)sc2C1,4870
